Test results as given in PMC12775434, “Ultra-large virtual screening unveils potent agonists of the neuromodulatory orphan receptor GPR139” (Nature Communications, 2025).
Where “and” joins values, the source holds several entries; their conditions need not be identical. Equal entries are not always repeated.

Key:
Assay type in all cases: cell-based
[1] = biological target: T1, human muscarinic acetylcholine M1 receptor (M1R) (Homo sapiens, UniProt P11229); assay: Ca2+ mobilization counter-screen in M1R-CHOk1 cells; details: individual replicates (Supplementary Figure 5)
T1 sequence (P11229 1-460): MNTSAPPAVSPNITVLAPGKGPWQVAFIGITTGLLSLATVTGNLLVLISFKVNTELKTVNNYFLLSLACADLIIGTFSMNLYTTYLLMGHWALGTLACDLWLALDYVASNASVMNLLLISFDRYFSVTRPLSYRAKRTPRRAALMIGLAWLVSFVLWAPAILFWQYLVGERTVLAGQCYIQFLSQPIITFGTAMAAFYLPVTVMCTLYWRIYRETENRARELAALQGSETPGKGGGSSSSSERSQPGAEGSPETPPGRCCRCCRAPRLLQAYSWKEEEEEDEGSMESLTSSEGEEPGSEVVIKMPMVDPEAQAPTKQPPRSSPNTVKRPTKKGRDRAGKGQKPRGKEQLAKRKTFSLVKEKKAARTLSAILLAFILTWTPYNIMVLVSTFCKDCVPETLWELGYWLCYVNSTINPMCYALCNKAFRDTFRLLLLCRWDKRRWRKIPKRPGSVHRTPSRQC
Procedure, shortened: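 M1R-CHOk1 cells seeded 20–24 h, loaded with 2 µM Fluo-4 AM (2.5 mM probenecid, 0.01% Pluronic F-68) for 1 h at 37 °C in HBSS/20 mM HEPES pH 7.4. Compounds added after baseline (≤0.3% DMSO); calcium fluorescence read at 37 °C, ex 485/em 525 nm.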

GPR139 [2] = biological target: T2, GPR139 (Homo sapiens, UniProt Q6DWJ6); assay: Ca2+ mobilization assay, antagonist mode (EC80 800 nM Lundbeck Cmp 1a after 20 min preincubation), GPR139-CHOk1; details: individual replicates (Supplementary Figure 4)
T2 sequence (Q6DWJ6 1-353): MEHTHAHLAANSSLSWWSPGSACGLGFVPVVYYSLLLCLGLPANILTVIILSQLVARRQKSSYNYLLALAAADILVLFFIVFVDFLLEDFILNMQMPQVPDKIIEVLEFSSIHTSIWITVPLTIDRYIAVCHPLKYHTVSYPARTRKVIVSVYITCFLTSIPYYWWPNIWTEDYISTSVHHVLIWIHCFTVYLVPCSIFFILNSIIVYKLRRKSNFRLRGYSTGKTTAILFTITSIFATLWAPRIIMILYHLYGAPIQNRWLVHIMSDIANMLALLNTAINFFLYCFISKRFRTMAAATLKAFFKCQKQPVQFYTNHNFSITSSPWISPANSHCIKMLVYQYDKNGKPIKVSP
Procedure, shortened: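 Fluo-4-loaded GPR139-CHOk1 cells in HEPES-buffered HBSS (pH 7.4, 2.5 mM probenecid) given test compounds at 10 µM, then after 20 min challenged with 800 nM Lundbeck Cmp 1a (EC80). Calcium fluorescence read at 37 °C, 485/525 nm.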

GPR139 [3] = biological target: T2, GPR139; assay: Ca2+ mobilization assay, agonist mode, stable GPR139-CHOk1 cell line; details: for EC50: GPR139-CHOk1, read-out: EC50, Ca2+ mobilization; for Emax: Supplementary Table 2, normalized to Lundbeck Cmp 1a, mean ± SEM, read-out: Emax (%) Ca2+
Procedure, shortened: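 Agonist activity of compounds is assessed in stably transfected CHO-K1 cells using the calcium dye Fluo-4 at 37 °C in HEPES-buffered HBSS (pH 7.4). Efficacy is expressed relative to the reference agonist Lundbeck Cmp 1a, set as 100%.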

[4] = Agonist mode, individual replicates (Supplementary Figure 4)
[5] = log [Compound] M = -4.5, individual replicate columns
[6] = log [Compound] M = -5.0, individual replicate columns
[7] = log [Compound] M = -5.5, individual replicate columns
[8] = log [Compound] M = -6.0, individual replicate columns
[9] = log [Compound] M = -6.5, individual replicate columns
[10] = log [Compound] M = -7.0, individual replicate columns
[11] = log [Compound] M = -7.5, individual replicate columns
[12] = log [Compound] M = -8.0, individual replicate columns
[13] = log [Compound] M = -8.5, individual replicate columns
[14] = log [Compound] M = -9.0, individual replicate columns

fold improved potency compared to compound 1 (GPR139 [3]; Ca2+ mobilization EC50)	EC50 (GPR139 [3])	Emax (GPR139 [3])	Compound	Ca2+ signal (% of Carbachol) [1]	Ca2+ signal (% of Cmp 1a) (GPR139 [2])	Ca2+ signal (% of Cmp 1a) (GPR139 [3]; [4])	Ca2+ signal (% of Cmp 1a) (GPR139 [3]; [5])	Ca2+ signal (% of Cmp 1a) (GPR139 [3]; [6])	Ca2+ signal (% of Cmp 1a) (GPR139 [3]; [7])	Ca2+ signal (% of Cmp 1a) (GPR139 [3]; [8])	Ca2+ signal (% of Cmp 1a) (GPR139 [3]; [9])	Ca2+ signal (% of Cmp 1a) (GPR139 [3]; [10])	Ca2+ signal (% of Cmp 1a) (GPR139 [3]; [11])	Ca2+ signal (% of Cmp 1a) (GPR139 [3]; [12])	Ca2+ signal (% of Cmp 1a) (GPR139 [3]; [13])	Ca2+ signal (% of Cmp 1a) (GPR139 [3]; [14])
3 fold	50 nM	116 ± 6%	COc1ccccc1-c1nc(CC(=O)NC(C)c2ccccc2)no1 (stereo not shown) [Compound 1.2, COC1=C(C2=NC(CC(NC(C3=CC=CC=C3)C)=O)=NO2)C=CC=C1]	-21 % of Carbachol and 0.491 % of Carbachol and -3.3 % of Carbachol	2 % of Cmp 1a and 4 % of Cmp 1a and 3.33 % of Cmp 1a	84 % of Cmp 1a and 90 % of Cmp 1a and 64 % of Cmp 1a	101 % of Cmp 1a and 98 % of Cmp 1a and 89 % of Cmp 1a and 111 % of Cmp 1a and 113 % of Cmp 1a	95 % of Cmp 1a and 88 % of Cmp 1a and 96 % of Cmp 1a and 108 % of Cmp 1a (2×)	86 % of Cmp 1a and 100 % of Cmp 1a and 98 % of Cmp 1a and 101 % of Cmp 1a and 103 % of Cmp 1a	77 % of Cmp 1a (2×) and 83 % of Cmp 1a and 90 % of Cmp 1a and 93 % of Cmp 1a	65 % of Cmp 1a and 81 % of Cmp 1a and 77 % of Cmp 1a and 70 % of Cmp 1a and 86 % of Cmp 1a	63 % of Cmp 1a (2×) and 64 % of Cmp 1a and 53 % of Cmp 1a and 56 % of Cmp 1a	46 % of Cmp 1a and 38 % of Cmp 1a and 39 % of Cmp 1a and 41 % of Cmp 1a and 52 % of Cmp 1a	14 % of Cmp 1a and 11 % of Cmp 1a (2×) and 15 % of Cmp 1a and 18 % of Cmp 1a	3.23 % of Cmp 1a and -2.25 % of Cmp 1a and 2.37 % of Cmp 1a and 7.37 % of Cmp 1a and 3.35 % of Cmp 1a	5 % of Cmp 1a and -0.0349 % of Cmp 1a and -0.541 % of Cmp 1a and 0.358 % of Cmp 1a and 0.331 % of Cmp 1a
	130 nM	103 ± 6%	Cc1nocc1-c1nc(CC(=O)NC(C)c2ccccc2)no1 (stereo not shown) [Compound 1.5, CC(C1=CC=CC=C1)NC(CC2=NOC(C3=CON=C3C)=N2)=O]	5 % of Carbachol and 6 % of Carbachol and 8 % of Carbachol	3.33 % of Cmp 1a and -5.33 % of Cmp 1a and -2.33 % of Cmp 1a	113 % of Cmp 1a and 100 % of Cmp 1a and 116 % of Cmp 1a	80 % of Cmp 1a and 113 % of Cmp 1a and 109 % of Cmp 1a and 101 % of Cmp 1a	104 % of Cmp 1a and 119 % of Cmp 1a and 100 % of Cmp 1a and 95 % of Cmp 1a	91 % of Cmp 1a and 108 % of Cmp 1a and 100 % of Cmp 1a and 85 % of Cmp 1a	78 % of Cmp 1a and 79 % of Cmp 1a and 91 % of Cmp 1a and 81 % of Cmp 1a	55 % of Cmp 1a and 74 % of Cmp 1a and 73 % of Cmp 1a and 76 % of Cmp 1a	36 % of Cmp 1a and 45 % of Cmp 1a and 52 % of Cmp 1a and 57 % of Cmp 1a	14 % of Cmp 1a and 3.67 % of Cmp 1a and 9 % of Cmp 1a and 12 % of Cmp 1a	17 % of Cmp 1a and 2 % of Cmp 1a and 47 % of Cmp 1a and -11 % of Cmp 1a	10 % of Cmp 1a and -6.33 % of Cmp 1a and 1 % of Cmp 1a and -17 % of Cmp 1a	-2.67 % of Cmp 1a and 0.333 % of Cmp 1a and -5 % of Cmp 1a and -15 % of Cmp 1a
